Measured values from patent US8324383B2, “Methods of making polymorphs of benzoate salt of 2-[[6-[(3R)-3-amino-1-piperidinyl]-3,4-dihydro-3-methyl-2,4-dioxo-1(2H)-pyrimidinyl]methyl]-benzonitrile” (Takeda Pharmaceutical Company Limited, priority 2006, dated 2012).
Entries after “also recorded” stand apart in the source; their conditions may differ. Where a name gives a salt, the structure may show the parent alone. Read-outs that look alike come from different tables or passages of the source.

How the values were obtained:
Type in all cases: physicochemical
[1] = Moisture sorption/desorption analysis (VTI SGA-100); conditions: for moisture sorption behaviour in words: moisture sorption/desorption analysis; for solid form of the sample after moisture sorption/desorption (XRPD): post moisture sorption/desorption sample
Procedure: Moisture sorption/desorption data were collected on a VTI SGA-100 Vapor Sorption Analyzer. Sorption and desorption data were collected over a range of 5% to 95% relative humidity (RH) at 10% RH intervals under a nitrogen purge. Samples were not dried prior to analysis. Equilibrium criteria used for analysis were less than 0.0100% weight change in 5 minutes, with a maximum equilibration time of 3 hours if the weight criterion was not met. Data were not corrected for the initial moisture content of the samples. NaCl and PVP were used as calibration standards.

[2] = Stress studies (relative humidity / temperature), solid form by XRPD; conditions: for Result (solid form by XRPD after stress): glassy material
Procedure: Vapor Stress (VS) Experiments: Form A was dispensed into a small vial, which was placed, uncapped, in a larger vial containing a diffusing solvent. The larger vial was sealed and stored at ambient temperature. Samples were also stressed in ovens at elevated temperatures and under different relative humidity conditions.
X-ray powder diffraction analyses were performed using a Shimadzu XRD-6000 X-ray powder diffractometer using Cu Kα radiation. The instrument is equipped with a long fine focus X-ray tube. The tube voltage and amperage were set to 40 kV and 40 mA, respectively. The divergence and scattering slits were set at 1° and the receiving slit was set at 0.15 mm. Diffracted radiation was detected by a NaI scintillation detector. A θ-2θ continuous scan at 3°/min (0.4 sec/0.02° step) from 2.5 to 40 °2θ was used. A silicon standard was analyzed to check the instrument alignment. Data were collected and analyzed using XRD-6000 v. 4.1. Samples were prepared for analysis by placing them in an aluminum holder with silicon insert.

[3] = Solubility estimates in test solvents (aliquot addition, visual inspection); conditions: room temperature, approximate
Procedure: A weighed sample of Compound I was treated with aliquots of the test solvent at room temperature. The mixture was sonicated between aliquot additions to facilitate dissolution. Complete dissolution of the test material was determined by visual inspection. Solubilities were estimated from these experiments based on the total solvent used to provide complete dissolution. The actual solubility may be greater than those calculated because of the use of solvent aliquots that were too large or due to a slow rate of dissolution. […] If complete dissolution was achieved as a result of only one aliquot addition, the solubility is expressed as “greater than.”

[4] = Thermal analysis (DSC, TGA, melting point) - thermal stability; conditions: solid phase
Procedure: Differential scanning calorimetry was performed using a TA Instruments differential scanning calorimeter 2920. The sample was placed into an aluminum DSC pan, and the weight accurately recorded. The pan was covered with a lid and then crimped. The sample cell was equilibrated at ambient temperature and heated under a nitrogen purge at a rate of 10° C./min, up to a final temperature of 350° C. Indium metal was used as the calibration standard. Reported temperatures are at the transition maxima.
Thermogravimetric analyses were performed using a TA Instruments 2950 thermogravimetric analyzer. Each sample was placed in an aluminum sample pan and inserted into the TG furnace. The furnace was first equilibrated at ambient temperature, then heated under nitrogen at a rate of 10° C./min, up to a final temperature of 350° C. Nickel and Alumel™ were used as the calibration standards.
Hot stage microscopy was performed using a Linkam hot stage mounted on a Leica DM LP microscope. Samples were observed using a 20× objective with a lambda plate with crossed polarizers. Samples were sandwiched between two coverslips and visually observed as the stage was heated. Images were captured using a SPOT Insight™ color digital camera with SPOT Software v. 3.5.8. The hot stage was calibrated using sulfapyridine and vanillin USP melting point standards.

## Cn1c(=O)cc(N2CCC[C@@H](N)C2)n(Cc2ccccc2C#N)c1=O [amorphous Form 1, benzoate salt of 2-[[6-[(3R)-3-amino-1-piperidinyl]-3,4-dihydro-3-methyl-2,4-dioxo-1(2H)-pyrimidinyl]methyl]-benzonitrile]
[1]; Sample RH 5.25, 25.00 °C, 151.0 min
  Weight chg (%): −0.953%
[1]; between 5% and 95% RH
  weight gain: about 6.5%
[1]; between 85% and 95% RH
  weight loss: about 5%
[1]; desorption, Sample RH 5.06, 24.99 °C, 2238.3 min
  Weight chg (%): −2.007%
[1]; desorption, Sample RH 15.16, 24.99 °C, 2221.4 min
  Weight chg (%): −1.980%
[1]; desorption, Sample RH 24.87, 24.99 °C, 2199.9 min
  Weight chg (%): −1.946%
[1]; desorption, Sample RH 34.87, 24.99 °C, 2081.7 min
  Weight chg (%): −1.737%
[1]; desorption, Sample RH 45.08, 25.01 °C, 1894.1 min
  Weight chg (%): −1.208%
[1]; desorption, Sample RH 55.16, 25.00 °C, 1706.6 min
  Weight chg (%): −0.421%
[1]; desorption, Sample RH 65.12, 24.98 °C, 1517.0 min
  Weight chg (%): 0.655%
[1]; desorption, Sample RH 75.25, 24.98 °C, 1327.5 min
  Weight chg (%): 1.908%
[1]; desorption, Sample RH 85.49, 24.98 °C, 1139.9 min
  Weight chg (%): 3.348%
[1]; from ambient conditions to 5% RH
  initial weight loss: approximately 1%
[1]
  moisture sorption behaviour in words: very hygroscopic
  solid form of the sample after moisture sorption/desorption (XRPD): matched form A; also recorded: tentatively identified as containing form A
[1]; sorption, Sample RH 14.81, 25.00 °C, 197.3 min
  Weight chg (%): −0.456%
[1]; sorption, Sample RH 24.80, 24.99 °C, 253.1 min
  Weight chg (%): 0.025%
[1]; sorption, Sample RH 34.93, 24.98 °C, 329.5 min
  Weight chg (%): 0.569%
[1]; sorption, Sample RH 44.84, 24.99 °C, 508.3 min
  Weight chg (%): 1.669%
[1]; sorption, Sample RH 54.90, 24.98 °C, 603.1 min
  Weight chg (%): 3.680%
[1]; sorption, Sample RH 64.85, 24.97 °C, 655.1 min
  Weight chg (%): 5.782%
[1]; sorption, Sample RH 74.54, 24.98 °C, 723.7 min
  Weight chg (%): 8.432%
[1]; sorption, Sample RH 84.54, 24.98 °C, 764.6 min
  Weight chg (%): 10.125%
[1]; sorption, Sample RH 94.62, 24.95 °C, 952.3 min
  Weight chg (%): 5.474%
[1]; start, Sample RH 53.89, 24.98 °C, 0.1 min
  Weight chg (%): 0.000%
[1]; under 85% RH
  weight gain: 10%

## Cn1c(=O)cc(N2CCC[C@@H](N)C2)n(Cc2ccccc2C#N)c1=O.O=C(O)c1ccccc1 [Compound 1924-83-05]
[2]; stress 40° C., 9 days
  Result (solid form by XRPD after stress): form A

## Cn1c(=O)cc(N2CCC[C@@H](N)C2)n(Cc2ccccc2C#N)c1=O.O=C(O)c1ccccc1 [Compound 1966-27-02]
[2]; stress 79% RH/60° C., 3 hrs
  Result (solid form by XRPD after stress): form A

## Cn1c(=O)cc(N2CCC[C@@H](N)C2)n(Cc2ccccc2C#N)c1=O.O=C(O)c1ccccc1 [Compound 1924-83-06]
[2]; stress 79% RH/40° C., 9 days
  Result (solid form by XRPD after stress): form A

## Cn1c(=O)cc(N2CCC[C@@H](N)C2)n(Cc2ccccc2C#N)c1=O [Form A, benzoate salt of 2-[[6-[(3R)-3-amino-1-piperidinyl]-3,4-dihydro-3-methyl-2,4-dioxo-1(2H)-pyrimidinyl]methyl]-benzonitrile]
[2]; various RH conditions at room temperature, several weeks
  phase change upon RH stress (XRPD): none of these samples had undergone a phase change
[3]; ethanol, organic solvent or mixture, thermodynamic from solid, solvent EtOH, read-out: Solubility
  solubility: < 3000 µg/mL
[3]; methanol, organic solvent or mixture, thermodynamic from solid, solvent MeOH, read-out: Solubility
  solubility: 13000 µg/mL
[3]; organic solvent or mixture, thermodynamic from solid, solvent CAN, read-out: Solubility
  solubility: < 1000 µg/mL
[3]; organic solvent or mixture, thermodynamic from solid, solvent CH2Cl2, read-out: Solubility
  solubility: < 3000 µg/mL
[3]; organic solvent or mixture, thermodynamic from solid, solvent DMF, read-out: Solubility
  solubility: 6000 µg/mL
[3]; organic solvent or mixture, thermodynamic from solid, solvent EtOAc, read-out: Solubility
  solubility: < 3000 µg/mL
[3]; organic solvent or mixture, thermodynamic from solid, solvent IPA, read-out: Solubility
  solubility: < 1000 µg/mL
[3]; organic solvent or mixture, thermodynamic from solid, solvent MEK, read-out: Solubility
  solubility: 3000 µg/mL
[3]; organic solvent or mixture, thermodynamic from solid, solvent MIBK, read-out: Solubility
  solubility: < 3000 µg/mL
[3]; organic solvent or mixture, thermodynamic from solid, solvent THF, read-out: Solubility
  solubility: < 1000 µg/mL
[3]; organic solvent or mixture, thermodynamic from solid, solvent acetone, read-out: Solubility
  solubility: < 3000 µg/mL
[3]; organic solvent or mixture, thermodynamic from solid, solvent dioxane, read-out: Solubility
  solubility: < 1000 µg/mL
[3]; solvent CH2Cl2, listed as Compound I Form A
  solubility: <3000 µg/mL
[3]; solvent EtOAc, listed as Compound I Form A
  solubility: <3000 µg/mL
[3]; solvent EtOH, listed as Compound I Form A
  solubility: <3000 µg/mL
[3]; solvent MIBK, listed as Compound I Form A
  solubility: <3000 µg/mL
[3]; solvent acetone, listed as Compound I Form A
  solubility: <3000 µg/mL
[3]; thermodynamic from solid, solvent water, read-out: Solubility
  solubility: 8000 µg/mL
[1]; RH 5.18%, 25.20 °C, 14.1 min
  Weight chg (%): 0.002%
[1]; between 9% and 95% RH
  weight loss: about 0.05%
[1]; desorption, RH 4.82%, 25.20 °C, 163.7 min
  Weight chg (%): −0.004%
[1]; desorption, RH 14.97%, 25.21 °C, 153.7 min
  Weight chg (%): 0.032%
[1]; desorption, RH 24.96%, 25.22 °C, 146.7 min
  Weight chg (%): 0.035%
[1]; desorption, RH 34.97%, 25.21 °C, 139.7 min
  Weight chg (%): 0.008%
[1]; desorption, RH 45.01%, 25.22 °C, 131.7 min
  Weight chg (%): 0.012%
[1]; desorption, RH 55.13%, 25.21 °C, 123.7 min
  Weight chg (%): 0.014%
[1]; desorption, RH 65.04%, 25.21 °C, 114.7 min
  Weight chg (%): 0.016%
[1]; desorption, RH 75.06%, 25.21 °C, 105.7 min
  Weight chg (%): 0.017%
[1]; desorption, RH 85.20%, 25.21 °C, 97.0 min
  Weight chg (%): 0.019%
[1]; from ambient conditions to 55% RH
  initial weight gain: approximately 0.035%
[1]
  moisture sorption behaviour in words: variable hydrate
  solid form of the sample after moisture sorption/desorption (XRPD): form A
[1]; sorption, RH 14.96%, 25.22 °C, 21.1 min
  Weight chg (%): 0.001%
[1]; sorption, RH 24.97%, 25.20 °C, 28.2 min
  Weight chg (%): 0.001%
[1]; sorption, RH 35.05%, 25.20 °C, 35.2 min
  Weight chg (%): 0.002%
[1]; sorption, RH 44.89%, 25.20 °C, 42.2 min
  Weight chg (%): 0.004%
[1]; sorption, RH 54.85%, 25.19 °C, 51.2 min
  Weight chg (%): 0.035%
[1]; sorption, RH 64.93%, 25.21 °C, 60.2 min
  Weight chg (%): 0.039%
[1]; sorption, RH 74.86%, 25.20 °C, 69.2 min
  Weight chg (%): 0.041%
[1]; sorption, RH 84.87%, 25.21 °C, 78.2 min
  Weight chg (%): 0.045%
[1]; sorption, RH 94.56%, 25.21 °C, 87.2 min
  Weight chg (%): 0.049%
[1]; start, RH 9.14%, 25.20 °C, 0.1 min
  Weight chg (%): 0.000%
[4]
  thermally stable (temperature): above 172 °C

## Cn1c(=O)cc(N2CCC[C@@H](N)C2)n(Cc2ccccc2C#N)c1=O.O=C(O)c1ccccc1 [Compound 1966-27-01]
[2]; stress 79% RH/60° C., 1 hr
  Result (solid form by XRPD after stress): form A
